Reference: ChEMBL document CHEMBL3045684, “Compatibility of traditional and novel acaricides with bumblebees (Bombus terrestris): a first laboratory assessment of toxicity and sublethal effects” (Pest Manag Sci, 2010)
The source made the active and inactive calls. The calls are words filed in the database; no cut-off is given here.

Legend:
Bombus terrestris [1] = assay: Contact toxicity against worker Bombus terrestris (bumblebee) assessed as reduction in reproduction at 150 mg a.i./l applied on the dorsal thorax for 11 weeks measured once a week for 11 weeks relative to control; type: functional, organism-based
Bombus terrestris [2] = assay: Toxicity against worker Bombus terrestris (bumblebee) assessed as reduction in reproduction at 150 mg a.i./l, po administered through sugar water for 11 weeks measured once a week for 11 weeks relative to control; type: functional, organism-based
Bombus terrestris [3] = assay: Contact toxicity against worker Bombus terrestris (bumblebee) assessed as mortality at 150 mg a.i./l applied on the dorsal thorax for 11 weeks measured everyday for 3 days followed by once a week for 11 weeks; type: functional
Bombus terrestris [4] = assay: Toxicity against worker Bombus terrestris (bumblebee) assessed as mortality at 150 mg a.i./l, po administered through pollen for 11 weeks measured everyday for 3 days followed by once a week for 11 weeks; type: functional, organism-based
Bombus terrestris [5] = assay: Toxicity against worker Bombus terrestris (bumblebee) assessed as reduction in reproduction at 150 mg a.i./l, po administered through pollen for 11 weeks measured once a week for 11 weeks; type: functional; design: scale not given: the % may be the effect or the level left
Bombus terrestris [6] = assay: Toxicity against worker Bombus terrestris (bumblebee) assessed as mortality at 150 mg a.i./l, po administered through sugar water for 11 weeks measured everyday for 3 days followed by once a week for 11 weeks; type: functional
Bombus terrestris [7] = assay: Toxicity against worker Bombus terrestris (bumblebee) assessed as reduction in reproduction at 96 mg a.i./l, po administered through sugar water for 11 weeks measured once a week for 11 weeks relative to control; type: functional, organism-based
Bombus terrestris [8] = assay: Toxicity against worker Bombus terrestris (bumblebee) assessed as mortality at 96 mg a.i./l, po administered through sugar water for 11 weeks measured everyday for 3 days followed by once a week for 11 weeks; type: functional
Bombus terrestris [9] = assay: Contact toxicity against worker Bombus terrestris (bumblebee) assessed as reduction in reproduction at 96 mg a.i./l applied on the dorsal thorax for 11 weeks measured once a week for 11 weeks relative to control; type: functional, organism-based
Bombus terrestris [10] = assay: Contact toxicity against Bombus terrestris (bumblebee) assessed per bee; type: functional
Bombus terrestris [11] = assay: Toxicity against worker Bombus terrestris (bumblebee) assessed as mortality at 96 mg a.i./l, po administered through sugar water measured up to 1 week; type: functional, organism-based
Apis mellifera [12] = assay: Contact toxicity against Apis mellifera (honey bee) assessed per bee after 48 hr; type: functional
Apis mellifera [13] = assay: Contact toxicity against Apis mellifera (honey bee) assessed per bee; type: functional
Bombus terrestris [14] = assay: Toxicity against worker Bombus terrestris (bumblebee) assessed as mortality at 96 mg a.i./l, po administered through pollen for 11 weeks measured everyday for 3 days followed by once a week for 11 weeks; type: functional, organism-based
Bombus terrestris [15] = assay: Contact toxicity against worker Bombus terrestris (bumblebee) assessed as mortality at 96 mg a.i./l applied on the dorsal thorax for 11 weeks measured everyday for 3 days followed by once a week for 11 weeks; type: functional
Bombus terrestris [16] = assay: Toxicity against worker Bombus terrestris (bumblebee) assessed as reduction in reproduction at 30 mg a.i./l, po administered through sugar water for 11 weeks measured once a week for 11 weeks relative to control; type: functional, organism-based
Bombus terrestris [17] = assay: Toxicity against po dosed worker Bombus terrestris (bumblebee) administered through sugar water for 11 weeks measured everyday for 3 days followed by once a week for 11 weeks; type: functional
Bombus terrestris [18] = assay: Contact toxicity against worker Bombus terrestris (bumblebee) assessed as mortality at 500 mg a.i./l applied on the dorsal thorax for 11 weeks measured everyday for 3 days followed by once a week for 11 weeks; type: functional
Bombus terrestris [19] = assay: Toxicity against worker Bombus terrestris (bumblebee) assessed as mortality at 500 mg a.i./l, po administered through sugar water for 11 weeks measured everyday for 3 days followed by once a week for 11 weeks; type: functional
Bombus terrestris [20] = assay: Toxicity against worker Bombus terrestris (bumblebee) assessed as reduction in reproduction at 500 mg a.i./l, po administered through pollen for 11 weeks measured once a week for 11 weeks; type: functional; design: scale not given: the % may be the effect or the level left
Bombus terrestris [21] = assay: Toxicity against worker Bombus terrestris (bumblebee) assessed as reduction in reproduction at 500 mg a.i./l, po administered through sugar water for 11 weeks measured once a week for 11 weeks relative to control; type: functional, organism-based
Bombus terrestris [22] = assay: Toxicity against worker Bombus terrestris (bumblebee) assessed as mortality at 500 mg a.i./l, po administered through pollen for 11 weeks measured everyday for 3 days followed by once a week for 11 weeks; type: functional, organism-based
Bombus terrestris [23] = assay: Contact toxicity against worker Bombus terrestris (bumblebee) assessed as reduction in reproduction at 500 mg a.i./l applied on the dorsal thorax for 11 weeks measured once a week for 11 weeks relative to control; type: functional, organism-based

Compound	Activity (Bombus terrestris [1])	mortality at 150 µg/mL (Bombus terrestris [3]) [%]	Activity (Bombus terrestris [4])	Activity (Bombus terrestris [5]) [%]	mortality at 150 µg/mL (Bombus terrestris [6]) [%]	mortality at 500 µg/mL (Bombus terrestris [18]) [%]	mortality at 500 µg/mL (Bombus terrestris [19]) [%]	Activity (Bombus terrestris [20]) [%]	Activity (Bombus terrestris [21])	Activity (Bombus terrestris [22])	Activity (Bombus terrestris [23])	other results
CCCCCCCCCCCCC1=C(OC(C)=O)C(=O)c2ccccc2C1=O [ACEQUINOCYL]	Active	< 25	inactive	50	< 25	–	–	–	–	–	–	Activity (Bombus terrestris [2]): Active
COc1ccc(-c2ccccc2)cc1NNC(=O)OC(C)C [BIFENAZATE]	–	–	–	–	–	–	–	–	–	–	–	Activity (Bombus terrestris [7]): Active; mortality at 96 µg/mL (Bombus terrestris [8]): 95%; Activity (Bombus terrestris [9]): inactive; LD50 (Bombus terrestris [10]): >100 µg; Activity (Bombus terrestris [11]): Active; LD50 (Apis mellifera [12]): 8.5 µg; LD50 (Apis mellifera [13]): <1 µg; Activity (Bombus terrestris [14]): inactive; mortality at 96 µg/mL (Bombus terrestris [15]): < 25%; Activity (Bombus terrestris [16]): Active; LC50 (Bombus terrestris [17]): 9.6 mgAi/L; NOAEL (Bombus terrestris [17]): 0.096 mgAi/L
CC(C)OC(=O)C(O)(c1ccc(Br)cc1)c1ccc(Br)cc1 [BROMOPROPYLATE]	–	–	–	–	–	< 25	< 25	50	Active	inactive	inactive	–
Clc1ccccc1-c1nnc(-c2ccccc2Cl)nn1 [CLOFENTEZINE]	Active	< 25	inactive	50	50	–	–	–	–	–	–	–
ClC1=C(Cl)C(Cl)(C2(Cl)C(Cl)=C(Cl)C(Cl)=C2Cl)C(Cl)=C1Cl [DIENOCHLOR]	–	–	–	–	–	< 25	85	50	Active	inactive	inactive	–
